These are literature values, as cited in US20250333373A1, “L-2-Amino-4-Halobutyric Acid Derivative-L-Tartrate and Preparation Method Thereof” (Vulpes Agricultural Corp., priority 2022, published 2025).

Molecules are shown by their SMILES.

The conditions of this series: for herbicidal effect: isomers of racemic glufosinate.

For `CP(=O)(O)CC[C@@H](N)C(=O)O` [D], the herbicidal effect result was “almost inactive”.

As to `CP(=O)(O)CC[C@H](N)C(=O)O` [L-glufosinate], the herbicidal effect result is “has an herbicidal effect”. Besides, for the setting “versus common (racemic) glufosinate”, the “herbicidal activity relative to common glufosinate” value is listed as “twice”.
